Reference: ChEMBL document CHEMBL1152286, “Pyrrospirones A and B, apoptosis inducers in HL-60 cells, from an endophytic fungus, Neonectria ramulariae Wollenw KS-246” (Bioorg Med Chem Lett, 2008)
Active and inactive are the calls of the source. No cut-off for these calls is given here.

What was measured:
Assay type in all cases: functional, cell-based
LNCaP = assay: Cytotoxicity against human LNCAP cells by MTT assay
HL-60 [1] = assay: Induction of apoptosis in human HL60 cells assessed as DNA fragmentation at 30 uM after 18 hrs by agarose-gel electrophoresis
HL-60 [2] = assay: Cytotoxicity against human HL60 cells by MTT assay
K562 = assay: Cytotoxicity against human K562 cells by MTT assay

| SMILES | IC50 (LNCaP) | Activity (HL-60 [1]) | IC50 (HL-60 [2]) | IC50 (K562) |
| --- | --- | --- | --- | --- |
| CC1=C[C@H]2[C@@H]3C(=O)[C@]4(C[C@@H]2O)C[C@](O)(Cc2ccc(cc2)O[C@H]2[C@H]3[C@@H]1[C@]1(C)C[C@H](C)C[C@H](C)[C@@H]21)NC4=O [PYRROSPIRONE B] | 20.2 µM | Active | 7.44 µM | 9.27 µM |
| C=C[C@@H]1C=C(C)[C@H]2[C@@H]3[C@H](Oc4ccc(cc4)C[C@@]4(O)C=C(C(=O)N4)C(=O)[C@@H]13)[C@@H]1[C@@H](C)C[C@@H](C)C[C@]12C [PYRROSPIRONE C] | 0.48 µM |  | 0.12 µM | 0.45 µM |
| C=C[C@@H]1C=C(C)[C@H]2[C@@H]3[C@H](Oc4ccc(cc4)C[C@@]4(O)C[C@H](C(=O)N4)C(=O)[C@@H]13)[C@@H]1[C@@H](C)C[C@@H](C)C[C@]12C [PYRROSPIRONE D] | 11.7 µM |  | 6.92 µM | 8.64 µM |
| CC1=C[C@H]2[C@@H]3C(=O)[C@]4(C[C@H]2O)C[C@](O)(Cc2ccc(cc2)O[C@H]2[C@H]3[C@@H]1[C@]1(C)C[C@H](C)C[C@H](C)[C@@H]21)NC4=O [PYRROSPIRONE A] | 18 µM | Active | 14.9 µM | 9.96 µM |
